Legend:
rNS3 = test: ribavirin dose finding, rNS3-specific IgG by EIA (FIG. 8, TABLE 17); assay type: in vivo, mice
Experimental: The levels of antibody to the antigen were then determined by EIA.
A second set of experiments was also performed. […] The mice were bled at week six and rNS3-specific IgG levels were determined by EIA as described previously.

NS3 = test: NS3-specific IgG subclasses by EIA after primary and booster injection (TABLE 18); assay type: in vivo, mice; details: 10 μg rNS3 with 0.1 or 1.0 mg ribavirin at weeks 0 and 4; bled week six
Experimental: The mice were bled at week six and NS3-specific IgG subclasses were determined by EIA as described previously.

[1] = system: NS3-specific CD4+ T cell proliferation; test: in vitro recall assay, CD4+ T cell proliferation of lymph node cells, [3H] thymidine; assay type: in vivo, mice; details: 100 μg rNS3 mixed with 1 mg ribavirin s.c.; ten days; 96 h culture (FIG. 9)
Experimental: This assay can be used with any ribavirin derivative or combinations of ribavirin derivatives to determine the extent that a particular vaccine formulation modulates a cellular immune response. […] The mice were sacrificed ten days post-immunization and their lymph nodes were harvested and drained. In vitro recall assays were then performed. (See e.g., Hultgren et al., J Gen Virol. 79:2381-91 (1998) and Hultgren et al., Clin. Diagn. Lab. Immunol. 4:630-632 (1997)). The amount of CD4^+ T cell proliferation was determined at 96 h of culture by the incorporation of [^3H] thymidine.

HBsAg = test: EIA end point antibody titer to HBsAg, Engerix vaccine with or without ribavirin (TABLE 19); assay type: in vivo, mice; details: 1 mg ribavirin with 2 μg vaccine i.p.; booster week four, bled week six
Description: (Engerix, SKB). […] A booster containing the same mixture was given on week four and all mice were bled on week six.

[2] = system: inositol mono-phosphate (IMP) dehydrogenase (IMPDH); details: cited from earlier work

NC(=O)c1ncn([C@@H]2O[C@H](CO)[C@@H](O)[C@H]2O)n1 [ribavirin, 1-β-D-ribofuranosyl-1,2,4-triazole-3-carboxamide]
effect on antibody levels (rNS3; higher doses (1-10 mg) ribavirin with 20 μg rNS3, week three (FIG. 8)): enhance antibody levels at week three | effect on antibody levels (rNS3; low doses (<1 mg) ribavirin with 20 μg rNS3, week one (FIG. 8)): enhance antibody levels at week one | effect on antibody levels (rNS3; low doses (<1 mg) ribavirin with 20 μg rNS3, week three (FIG. 8)): not at week three | effect on IgG subclass response (NS3): does not change the IgG subclass response | T cell proliferative response versus 100 μg rNS3 in PBS [1]: much greater T cell proliferative response | effect on antibody response to Engerix vaccine (HBsAg): enhanced the response | mode of action on IMPDH [2]: competitive inhibitor
